Results taken from US6479435B1, “Diaryl ethers and processes for their preparation and herbicidal and desiccant compositions containing them” (ISK Americas Incorporated, priority 1997, dated 2002).

What was measured:
Type in all cases: in vivo
[1] = test system: lambsquarters (Chenopodium album, CHEAL); test: Post-emerge greenhouse herbicide test, phytotoxicity rating; conditions: 14 days after application
Outline: (§1)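 Compounds in acetone with 0.25% v/v non-ionic surfactant were track-sprayed at 187 l/ha over plants at the 2-3 leaf stage, at 63 to 1000 g ai/ha. Pots were bottom-watered. Injury was scored visually 14 days later on a 0-100 scale, where 0 is no damage and 100 is complete plant death.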

[2] = test system: large crabgrass (Digitaria sanguinalis, DIGSA); test: as above; conditions: 14 days after application
Outline: as §1

[3] = test system: sicklepod (Cassia obtusifolia, CASOB); test: as above; conditions: 14 days after application
Outline: as §1

[4] = test system: velvetleaf (Abutilon theophrasti, ABUTH); test: as above; conditions: 14 days after application
Outline: as §1

[5] = test system: green foxtail (Setaria viridis, SETVI); test: as above; conditions: 14 days after application
Outline: as §1

[6] = test system: barnyardgrass (Echinochloa crusgalli, ECHCG); test: as above; conditions: 14 days after application
Outline: as §1

[7] = test system: ivyleaf morningglory (Ipomoea hederacea, IPOHE); test: as above; conditions: 14 days after application
Outline: as §1

[8] = test system: Johnsongrass (Sorghum halepense, SORHA); test: as above; conditions: 14 days after application
Outline: as §1

[9] = test system: redroot pigweed (Amaranthus retroflexus, AMARE); test: as above; conditions: 14 days after application
Outline: as §1

[10] = test system: common ragweed (Ambrosia artemisiifolia L., AMBEL); test: as above; conditions: 14 days after application
Source text: A standard greenhouse herbicide activity screening system was used to evaluate the herbicidal efficacy and crop safety of these test compounds. Six broadleaf weed species including redroot pigweed (Amaranthus retroflexus, AMARE), velvetleaf (Abutilon theophrasti, ABUTH), sicklepod (Cassia obtusifolia, CASOB), ivyleaf morningglory (Ipomoea hederacea, IPOHE), lambsquarters (Chenopodium album, CHEAL) and common ragweed (Ambrosia artemisiifolia L., AMBEL) were used as test species. Four grass weed species including green foxtail (Setaria viridis, SETVI), barnyardgrass (Echinochloa crusgalli, ECHCG), Johnsongrass (Sorghum halepense, SORHA), and large crabgrass (Digitaria sanguinalis, DIGSA) were also used. In addition, three crop species, field corn (Zea mays L., var. Dekalb 535, CORN), soybean (Glycine max L., var. Pella 86, SOY), and upland rice (Oryza sp., var.Tebonnet, RICE) were included.
All test compounds were dissolved in acetone and applied to the test units in a volume of 187 l/ha. […] Plants were arranged on a shelf so that the top of the canopy (post-emerge) or top of the soil surface (pre-emerge) was 40-45 cm below the nozzle. Pressurized air was used to force the test solution through the nozzle as it was mechanically advanced (via electrically driven chain drive) over the top of all test plants/pots. This application simulates a typical commercial field herbicide application.
In the post-emerge test, a commercial non-ionic surfactant was also included (0.25% v/v) to enhance wetting of the leaf surfaces Qf target plants at rates ranging from 63 g ai/ha to 1000 g ai/ha. For post-emerge tests, seeds were planted 8-21 days prior to the test to allow emergence and good foliage development prior to application of the test substances. At the time of the post-emerge application, plants of all species were usually at the 2-3 leaf stage of development. Post-emerge test units were always bottom-watered.
At 14 days after application of the test materials, phytotoxicity ratings were recorded. A rating scale of 0-100 was used as previously described in Research Methods in Weed Science, 2nd edition, B. Truelove, Ed., Southern Weed Science Society, Auburn University, Auburn, Ala., 1977. Briefly, “0” corresponds to no damage and “100” corresponds to complete death of all plants in the test unit. This scale was used both to determine efficacy against weed species and damage to crop species. Herbicide activity data for various compounds of this invention, which are shown by compound number in Tables 1-9, are shown in Tables 13 and 14.

[11] = test system: lambsquarters (Chenopodium album, CHEAL); test: Pre-emerge greenhouse herbicide test, phytotoxicity rating; conditions: 14 days after application, rating scale 0-100
Outline: (§2)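 Seeds sown in sandy loam mix one day before track-sprayer application of compounds in acetone at 125–1000 g ai/ha (187 l/ha), then surface-watered to incorporate and bottom-watered. Visual rating 14 days after application on a 0–100 scale (0 = no damage, 100 = all plants dead).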

[12] = test system: large crabgrass (Digitaria sanguinalis, DIGSA); test: as above; conditions: 14 days after application, rating scale 0-100
Outline: as §2

[13] = test system: sicklepod (Cassia obtusifolia, CASOB); test: as above; conditions: 14 days after application, rating scale 0-100
Outline: as §2

[14] = test system: velvetleaf (Abutilon theophrasti, ABUTH); test: as above; conditions: 14 days after application, rating scale 0-100
Outline: as §2

[15] = test system: green foxtail (Setaria viridis, SETVI); test: as above; conditions: 14 days after application, rating scale 0-100
Outline: as §2

[16] = test system: barnyardgrass (Echinochloa crusgalli, ECHCG); test: as above; conditions: 14 days after application, rating scale 0-100
Outline: as §2

[17] = test system: common ragweed (Ambrosia artemisiifolia L., AMBEL); test: as above; conditions: 14 days after application, rating scale 0-100
Outline: as §2

[18] = test system: ivyleaf morningglory (Ipomoea hederacea, IPOHE); test: as above; conditions: 14 days after application, rating scale 0-100
Outline: as §2

[19] = test system: Johnsongrass (Sorghum halepense, SORHA); test: as above; conditions: 14 days after application, rating scale 0-100
Outline: as §2

[20] = test system: redroot pigweed (Amaranthus retroflexus, AMARE); test: as above; conditions: 14 days after application, rating scale 0-100
Outline: as §2

SMILES	CHEAL phytotoxicity rating (0-100) ([1]; 63 g al/ha)	CHEAL phytotoxicity rating (0-100) ([1]; 500 g al/ha)	DIGSA phytotoxicity rating (0-100) ([2]; 63 g al/ha)	DIGSA phytotoxicity rating (0-100) ([2]; 500 g al/ha)	CASOB phytotoxicity rating (0-100) ([3]; 63 g al/ha)	CASOB phytotoxicity rating (0-100) ([3]; 500 g al/ha)	ABUTH phytotoxicity rating (0-100) ([4]; 63 g al/ha)	ABUTH phytotoxicity rating (0-100) ([4]; 500 g al/ha)	SETVI phytotoxicity rating (0-100) ([5]; 63 g al/ha)	SETVI phytotoxicity rating (0-100) ([5]; 500 g al/ha)	ECHCG phytotoxicity rating (0-100) ([6]; 63 g al/ha)	ECHCG phytotoxicity rating (0-100) ([6]; 500 g al/ha)	IPOHE phytotoxicity rating (0-100) ([7]; 63 g al/ha)	IPOHE phytotoxicity rating (0-100) ([7]; 500 g al/ha)	SORHA phytotoxicity rating (0-100) ([8]; 63 g al/ha)	SORHA phytotoxicity rating (0-100) ([8]; 500 g al/ha)	AMARE phytotoxicity rating (0-100) ([9]; 63 g al/ha)	AMARE phytotoxicity rating (0-100) ([9]; 500 g al/ha)	AMBEL phytotoxicity rating (0-100) ([10]; 63 g al/ha)	AMBEL phytotoxicity rating (0-100) ([10]; 500 g al/ha)	further results
COc1nc(OC)nc(Oc2cc(-c3nn(C)c(C(F)(F)F)c3Cl)c(F)cc2Cl)n1 [Compound 1-8, 4-chloro-3-(4-chloro-2-fluoro-5-(4,6-dimethoxy-2-triazinyloxy)phenyl)-1-methyl-5-trifluoromethyl-1H-pyrazole]	0	95	0	20	0	10	0	35	50	20	0	0	10	80	0	10	20	100	0	10	phytotoxicity rating CHEAL ([11]; 125 g ai/ha): 0; phytotoxicity rating CHEAL ([11]; 500 g ai/ha): 100; phytotoxicity rating DIGSA ([12]; 125 g ai/ha): 20; phytotoxicity rating DIGSA ([12]; 500 g ai/ha): 90; phytotoxicity rating CASOB ([13]; 125 g ai/ha): 0; phytotoxicity rating CASOB ([13]; 500 g ai/ha): 0; phytotoxicity rating ABUTH ([14]; 125 g ai/ha): 0; phytotoxicity rating ABUTH ([14]; 500 g ai/ha): 20; phytotoxicity rating SETVI ([15]; 125 g ai/ha): 50; phytotoxicity rating SETVI ([15]; 500 g ai/ha): 100; phytotoxicity rating ECHCG ([16]; 125 g ai/ha): 0; phytotoxicity rating ECHCG ([16]; 500 g ai/ha): 0; phytotoxicity rating AMBEL ([17]; 125 g ai/ha): 0; phytotoxicity rating AMBEL ([17]; 500 g ai/ha): 10; phytotoxicity rating IPOHE ([18]; 125 g ai/ha): 0; phytotoxicity rating IPOHE ([18]; 500 g ai/ha): 0; phytotoxicity rating SORHA ([19]; 125 g ai/ha): 0; phytotoxicity rating SORHA ([19]; 500 g ai/ha): 35; phytotoxicity rating AMARE ([20]; 125 g ai/ha): 70; phytotoxicity rating AMARE ([20]; 500 g ai/ha): 100
O=c1n(CCCF)nnn1-c1cc(Oc2ncccn2)c(Cl)cc1F [Compound 6-10, 1-[4-chloro-2-fluoro-5-(2-pyrimidyloxy)phenyl]-4-(3-fluoropropyl)-1,4-dihydro-5-oxo-5H-tetrazole]	90	100	50	100	30	100	100	100	30	100	30	100	100	100	0	100	90	100	30	100	phytotoxicity rating CHEAL ([11]; 125 g ai/ha): 100; phytotoxicity rating CHEAL ([11]; 500 g ai/ha): 100; phytotoxicity rating DIGSA ([12]; 125 g ai/ha): 100; phytotoxicity rating DIGSA ([12]; 500 g ai/ha): 100; phytotoxicity rating CASOB ([13]; 125 g ai/ha): 40; phytotoxicity rating CASOB ([13]; 500 g ai/ha): 100; phytotoxicity rating ABUTH ([14]; 125 g ai/ha): 100; phytotoxicity rating ABUTH ([14]; 500 g ai/ha): 100; phytotoxicity rating SETVI ([15]; 125 g ai/ha): 100; phytotoxicity rating SETVI ([15]; 500 g ai/ha): 100; phytotoxicity rating ECHCG ([16]; 125 g ai/ha): 100; phytotoxicity rating ECHCG ([16]; 500 g ai/ha): 100; phytotoxicity rating AMBEL ([17]; 125 g ai/ha): 100; phytotoxicity rating AMBEL ([17]; 500 g ai/ha): 100; phytotoxicity rating IPOHE ([18]; 125 g ai/ha): 100; phytotoxicity rating IPOHE ([18]; 500 g ai/ha): 100; phytotoxicity rating SORHA ([19]; 125 g ai/ha): 100; phytotoxicity rating SORHA ([19]; 500 g ai/ha): 100; phytotoxicity rating AMARE ([20]; 125 g ai/ha): 100; phytotoxicity rating AMARE ([20]; 500 g ai/ha): 100
COc1nc(OC)nc(Oc2cc(-c3nc(C)n(C(F)F)c3Cl)c(F)cc2Cl)n1 [Compound 2-4, 5-chloro-4-(4-chloro-2-fluoro-5-(4,6-dimethoxy-2-triazinyloxy)phenyl)-1-difluoromethyl-2-methylimidazole]	0	70	0	10	0	0	0	80	0	50	0	0	0	75	0	50	0	90	0	0	phytotoxicity rating CHEAL ([11]; 125 g ai/ha): 70; phytotoxicity rating CHEAL ([11]; 500 g ai/ha): 100; phytotoxicity rating DIGSA ([12]; 125 g ai/ha): 0; phytotoxicity rating DIGSA ([12]; 500 g ai/ha): 50; phytotoxicity rating CASOB ([13]; 125 g ai/ha): 0; phytotoxicity rating CASOB ([13]; 500 g ai/ha): 10; phytotoxicity rating ABUTH ([14]; 125 g ai/ha): 10; phytotoxicity rating ABUTH ([14]; 500 g ai/ha): 70; phytotoxicity rating SETVI ([15]; 125 g ai/ha): 20; phytotoxicity rating SETVI ([15]; 500 g ai/ha): 95; phytotoxicity rating ECHCG ([16]; 125 g ai/ha): 0; phytotoxicity rating ECHCG ([16]; 500 g ai/ha): 0; phytotoxicity rating AMBEL ([17]; 125 g ai/ha): 10; phytotoxicity rating AMBEL ([17]; 500 g ai/ha): 0; phytotoxicity rating IPOHE ([18]; 125 g ai/ha): 10; phytotoxicity rating IPOHE ([18]; 500 g ai/ha): 0; phytotoxicity rating SORHA ([19]; 125 g ai/ha): 0; phytotoxicity rating SORHA ([19]; 500 g ai/ha): 40; phytotoxicity rating AMARE ([20]; 125 g ai/ha): 70; phytotoxicity rating AMARE ([20]; 500 g ai/ha): 100
